Measured values from publication PMC9745132, “Visualization of real-time receptor endocytosis in dopamine neurons enabled by NTSR1-Venus knock-in mice” (Frontiers in Cellular Neuroscience, 2022).
“And” between values parts separate entries of the source, which are not always exact repeats. Equal values may be shown once. Where a name gives a salt, the structure may show the parent alone. Read-outs that look alike come from different tables or passages of the source. *1 amine or outer side, *2 acyl side, *3 side chain or, on linkers, in order; H or OH if unused. Where a SMILES comes first, the peptide text is derived from it. [ ]: non-standard residue; d: D form. X1 = NCCCC[C@H](N)CN([C@@H](CCCCN)C(=O)[*:2])[*:1]; Tle = CC(C)(C)[C@H](N)C(=O)O

Columns and labels:
NTSR1-Venus [1] = target: T1, NTSR1-Venus (Mus musculus, UniProt O88319); test: NTSR1-Venus endocytosis in primary hippocampal neurons (Venus/EEA1 colocalization; live confocal imaging); assay type: cell-based
T1 construct: monitoring endogenous NTSR1-Venus receptor endocytosis could differentiate NTSR1 agonists; endogenous in cells; host or cells: primary hippocampal neurons from homozygous NTSR1-Venus knock-in mice (C57BL/6N background)
T1 sequence (O88319 whole entry): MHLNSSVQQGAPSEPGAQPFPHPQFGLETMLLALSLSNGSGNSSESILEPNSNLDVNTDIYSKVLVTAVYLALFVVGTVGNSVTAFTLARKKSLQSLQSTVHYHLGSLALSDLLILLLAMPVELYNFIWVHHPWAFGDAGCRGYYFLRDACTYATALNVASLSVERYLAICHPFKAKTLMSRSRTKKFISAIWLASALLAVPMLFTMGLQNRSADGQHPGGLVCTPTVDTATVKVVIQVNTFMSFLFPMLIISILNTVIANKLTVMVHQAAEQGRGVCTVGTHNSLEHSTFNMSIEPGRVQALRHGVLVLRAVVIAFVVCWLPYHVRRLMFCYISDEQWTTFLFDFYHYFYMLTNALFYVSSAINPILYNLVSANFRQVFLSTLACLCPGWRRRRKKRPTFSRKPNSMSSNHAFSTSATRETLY
Method: To isolate hippocampal neurons, P0 pups were removed from the cage of NTSR1-Venus homozygous knock-in breeding pairs. […] Neurons were plated on Poly-D-Lysine (Sigma) coated surfaces at 100,000 cells per 12 mm coverslip (NeuVitro, Camas, WA, USA) in a 24-well plate for immunostaining or 50,000 cells per well of an 8 well chamber slide (Ibidi, Grafelfing, Germany) for calcium measurements. Plating media [Neurobasal A (Gibco, Grand Island, NY, USA), 1% FBS (Fisher Scientific), 2% B-27 (Gibco, Grand Island, NY, USA), 0.5 mM GlutaMAX (Gibco, Grand Island, NY, USA), and 1x Penicillin/Streptomycin (Invitrogen, Waltham, MA, USA)] was exchanged 1 h after plating to maintenance media (Neurobasal A, 2% B-27, 0.5 mM GlutaMAX, and 1x Penicillin/Streptomycin).

NTSR1-Venus [2] = target: T1, NTSR1-Venus; test: Gq activation ebBRET (Gq EMTA, p63RhoGEF-RlucII / rGFP-CAAX) in HEK293 cells, Venus tagged NTSR1; assay type: cell-based; conditions: mean ± SEM
Description: The mouse coding sequence of NTSR1 was PCR amplified from pCMV6-mNTSR1 (Origene, Rockville, MD, USA) and subcloned upstream from the IRES feature with a STOP codon before IRES into pIRES (Invitrogen, Waltham, MA, USA) and pIRES-Venus vector previously described ([Hamdan et al., 2005]) resulting in expression of either untagged NTSR1 or NTSR1-Venus. […] The pIRES vector was used The rGFP-CAAX BRET and Gq GEMTA biosensors construct were generated as previously described ([Namkung et al., 2016]; [Avet et al., 2022]).
HEK293 clonal cell line (HEK293SL cells), hereafter referred as HEK293 cells, were a gift from S. Laporte (McGill University, Montreal, Quebec, Canada) and previously described ([Namkung et al., 2016]). Cells were maintained in Dulbecco’s Modified Eagle Medium (DMEM, Wisent, Saint-Jean-Baptiste, QC, Canada) supplemented with 10% fetal bovine serum (FBS, Wisent) and 1% antibiotics [100 U/mL penicillin and 100 μg/mL streptomycin (PS); Wisent]. Cells were grown at 37°C in 5% CO2 and 90% humidity and checked for mycoplasma contamination. […] The total quantity of DNA was completed at 1 μg with salmon sperm DNA (Invitrogen, Waltham, MA, USA). […]
Forty-eight hours post-transfection, cells were washed once with phosphate-buffered saline (PBS) then incubated 1 h at 37°C in Tyrode buffer (137 mM NaCI, 0.9 mM KCI, 1 mM MgCI2, 1 1.9 mM NaHCO3, 3.6 mM NaH2PO4, 25 mM HEPES, 5.5 mM Glucose, and 1 mM CaCI2, pH 7.4). […] Bioluminescence resonance energy transfer (BRET) was then measured between RlucII (BRET energy donor) and rGFP (enhanced bystander ebBRET acceptor)–tagged proteins. BRET values were read for 1 s per well using a Mithras™ LB940 Multimode Microplate Reader (Berthold Technologies, Bad Wildbad, Germany) for concentration–response curves. ebBRET values were obtained by calculating the ratio of the light emitted by the energy acceptor over the light emitted by the energy donor (donor 410 ± 70 nm/acceptor 515 ± 20 nm). […] They were then fitted and analyzed in GraphPad Prism (v9.0, GraphPad Software, Inc., San Diego, CA, USA). […]

[3] = system: Ntsr1^Venus/Venus and Ntsr1^WT/WT mice; test: Locomotor activity in activity boxes after i.p. injection; assay type: in vivo, mouse
Method: Locomotor activity was measured using Plexiglas activity boxes (20 × 20 × 20 cm) surrounded by horizontal and vertical infrared sensor beams (Versamax Omnitech Electronics, Columbus, OH, USA) during the light phase. The total numbers of animals used in locomotion experiments were n = 16 Ntsr1^Venus/Venus and n = 15 Ntsr1^WT/WT mice. Animals were habituated to the room in singly housed cages with home bedding for 1 h, before being injected with either 0.9% saline, 0.2, 0.5, 1, 5 mg/kg, PD149163, dissolved in 0.9% saline, and returned to their home cages for 30 min. Then mice were placed in horizontally opposed chambers, and horizontal movement (cm) was measured over the course of 2 h, in bins of 10 min.
Having established evidence supporting functional NTSR1-Venus receptor signaling (Gq/Ca2+) and receptor endocytosis we next evaluated behavioral responses in these animals. […] First, when animals were not yet habituated to the activity chambers and only received saline injections, we observed somewhat higher activity counts for Ntsr1^Venus/Venus compared to Ntsr1^WT/WT animals (Supplementary Figure 1). […] A significant difference at 0.2 mg/kg and a trend that was not significant at higher doses (0.5, 1, or 5 mg/kg) was observed between Ntsr1^Venus/Venus and Ntsr1^WT/WT animals (Figure 2I). […]

NTSR1-RlucII = target: T2, NTSR1-RlucII (Mus musculus, UniProt O88319); test: NTSR1-RlucII internalization ebBRET assay (NTSR1-RlucII donor, rGFP-CAAX acceptor) in HEK293 cells; assay type: cell-based
T2 construct: expressed in transfected cells; host or cells: HEK293 (HEK293SL)
T2 sequence (O88319 whole entry): as above
Method: Cells were maintained in Dulbecco’s Modified Eagle Medium (DMEM, Wisent, Saint-Jean-Baptiste, QC, Canada) supplemented with 10% fetal bovine serum (FBS, Wisent) and 1% antibiotics [100 U/mL penicillin and 100 μg/mL streptomycin (PS); Wisent]. Cells were grown at 37°C in 5% CO2 and 90% humidity and checked for mycoplasma contamination. Two days prior to experiments, cells were trypsinized (Wisent) and 35,000 cells were transfected with 1 μg of total DNA containing the appropriate expression vectors/biosensors. The total quantity of DNA was completed at 1 μg with salmon sperm DNA (Invitrogen, Waltham, MA, USA). Transfection was performed using the transfecting agent polyethylenimine 25 kD linear (PEI; Polysciences, Warrington, PA, USA) at a ratio of 3:1 PEI/DNA. Cells were then immediately plated onto poly-ornithine (Sigma-Aldrich) coated 96-well white culture plates (PerkinElmer, Waltham, MA, USA).
Forty-eight hours post-transfection, cells were washed once with phosphate-buffered saline (PBS) then incubated 1 h at 37°C in Tyrode buffer (137 mM NaCI, 0.9 mM KCI, 1 mM MgCI2, 1 1.9 mM NaHCO3, 3.6 mM NaH2PO4, 25 mM HEPES, 5.5 mM Glucose, and 1 mM CaCI2, pH 7.4). Cells were then treated with the ligands and prior to measurement treated with the substrate (5 min with 2.5 μM Coelantarazine 400a). Bioluminescence resonance energy transfer (BRET) was then measured between RlucII (BRET energy donor) and rGFP (enhanced bystander ebBRET acceptor)–tagged proteins. BRET values were read for 1 s per well using a Mithras™ LB940 Multimode Microplate Reader (Berthold Technologies, Bad Wildbad, Germany) for concentration–response curves. ebBRET values were obtained by calculating the ratio of the light emitted by the energy acceptor over the light emitted by the energy donor (donor 410 ± 70 nm/acceptor 515 ± 20 nm). Data were collected using the MicroWin 2000 software (Berthold Technologies, Bad Wildbad, Germany). They were then fitted and analyzed in GraphPad Prism (v9.0, GraphPad Software, Inc., San Diego, CA, USA).
A decrease in BRET indicates receptor loss from the plasma membrane. […] Data are expressed as raw BRET signal (Mean ± SEM) from five independent experiments.
We set-up an enhanced bystander bioluminescence energy resonance transfer (ebBRET) assay by fusing RlucII at the NTSR1 C-tail and expressing this construct together with rGFP-CAAX in HEK293 cells (Figure 1A).

What does the source list for `CCOC(=O)[C@H](CC(C)C)NC(=O)[C@@H](NC(=O)[C@H](Cc1c[nH]c2ccccc12)NC(=O)[C@@H]1CCCN1C(=O)[C@H](CCCCN)NC[C@@H](N)CCCCN)C(C)(C)C` [PD149163, PD149163 tetrahydrochloride hydrate] (H-[X1]PW[Tle]L-OEt; N-terminus and C-terminus assumed)?
time course of NTSR1-Venus in early endosomes (NTSR1-Venus [1]; 1 μM, 5 to 60 min): remained stable; NTSR1-Venus internalization, live confocal imaging (NTSR1-Venus [1]; 1 μM, 20 min live imaging of hippocampal neurons): robust internalization of the receptor; percentage of endosomes containing NTSR1 after 60 min, PD149163 vs neurotensin (NTSR1-Venus [1]; 1 μM, 60 min): significantly higher percentage; NTSR1-Venus redistribution to endosomes (% EEA1 vesicles) (NTSR1-Venus [1]; 1 μM, within the first 5 min of agonist treatment): 92.7% ± 6.9; EC50 (NTSR1-Venus [1]; Ntsr1^Venus/Venus hippocampal neurons, 5 min of agonist treatment, read-out: EC50, NTSR1-Venus endocytosis (ratio of Venus and EEA1 positive to total EEA1 positive endosomes)): 465 nM; EC50 (NTSR1-Venus [2]; given as LogEC50 (negative sign), read-out: Potency [LogEC50 (M)], Gq activation, NTSR1-Venus (converted)): 3.05e-08 M; Efficacy (Raw BRET), Gq activation, NTSR1-Venus (NTSR1-Venus [2]): 0.476 Raw BRET and 0.476 ± 0.009 Raw BRET; hypolocomotion in Ntsr1^Venus/Venus and Ntsr1^WT/WT animals ([3]; 0.5 mg/kg i.p., measured 30 min after injection): induced NTSR1 mediated hypolocomotion to a similar extent; total distance traveled over 2 h as compared to saline animals ([3]; i.p. 0.2, 0.5, 1, 5 mg/kg, both genotypes): dose-dependent decrease; EC50 (NTSR1-RlucII; NTSR1-RlucII, read-out: potency to induce NTSR1 internalization): 3.07e-07 M; Efficacy (Raw BRET), NTSR1-RlucII internalization (NTSR1-RlucII; decrease in BRET = receptor loss from membrane, mean ± SEM): −0.245 Raw BRET and −0.245 ± 0.008 Raw BRET; EC50 (NTSR1-RlucII; given as LogEC50 (negative sign), mean ± SEM, five independent experiments, read-out: Potency [LogEC50 (M)], NTSR1-RlucII internalization (converted)): 3.07e-07 M
